Test system: diarrhea-predominant IBS subjects
Assay: 3007 Study: open-label 52-week safety study, adverse events and withdrawals
Conditions: Cilansetron 2 mg/Cilansetron 2 mg

## Cc1nccn1C[C@H]1CCc2c(c3cccc4c3n2CCC4)C1=O [cilansetron, (R)-(−)-4,5,6,8,9,10-hexahydro-10-[(2-methyl-1H-imidazol-1-yl)methyl]-11H-pyrido-[3,2,1-jk]-carbazol-11-one]
  TEAE: Infections and Infestations: 106 (41%) n (%)
  TEAE: Influenza: 11 (4%) n (%)
  TEAE: Influenza Viral Infections: 11 (4%) n (%)
  TEAE: Inguinal Hernia NOS: 0 n (%)
  TEAE: Inguinal Hernias: 0 n (%)
  TEAE: Injury, Poisoning and Procedural Complications: 26 (10%) n (%)
  TEAE: Intervertebral Disc Degeneration NOS: 2 (<1%) n (%)
  TEAE: Intervertebral Disc Disorder NOS: 1 (<1%) n (%)
  TEAE: Intervertebral Disc Disorders NEC: 5 (2%) n (%)
  TEAE: Intervertebral Disc Herniation: 4 (2%) n (%)
  TEAE: Intestinal Haemorrhages: 4 (2%) n (%)
  TEAE: Intraocular Pressure Increased: 1 (<1%) n (%)
  TEAE: Investigations: 77 (30%) n (%)
  TEAE: Irritable Bowel Syndrome: 1 (<1%) n (%)
  TEAE: Irritable Bowel Syndrome Aggravated: 3 (1%) n (%)
  TEAE: Joint Related Disorders NEC: 1 (<1%) n (%)
  TEAE: Joint Related Signs and Symptoms: 11 (4%) n (%)
  TEAE: Joint Sprain: 1 (<1%) n (%)
  TEAE: Joint Swelling: 1 (<1%) n (%)
  TEAE: Kidney Infection NOS: 0 n (%)
  TEAE: Laceration: 3 (1%) n (%)
  TEAE: Ligament Sprain: 1 (<1%) n (%)
  TEAE: Limb Discomfort NOS: 0 n (%)
  TEAE: Limb Injuries NEC (Incl Traumatic Amputation): 1 (<1%) n (%)
  TEAE: Limb Injury NOS: 2 (<1%) n (%)
  TEAE: Lip and Palate Disorders NEC: 0 n (%)
  TEAE: Liver Function Analyses: 12 (5%) n (%)
  TEAE: Liver Function Tests NOS Abnormal: 0 n (%)
  TEAE: Localised Infection: 1 (<1%) n (%)
  TEAE: Localised Osteoarthritis: 1 (<1%) n (%)
  TEAE: Loss of Consciousness: 1 (<1%) n (%)
  TEAE: Lower Limb Fracture NOS: 0 n (%)
  TEAE: Lower Limb Fractures and Dislocations: 1 (<1%) n (%)
  TEAE: Lower Respiratory Tract and Lung Infections: 21 (8%) n (%)
  TEAE: Lymphocyte Count Increased: 2 (<1%) n (%)
  TEAE: Memory Loss (Excl Dementia): 1 (<1%) n (%)
  TEAE: Metabolic Bone Disorders: 2 (<1%) n (%)
  TEAE: Metabolism Tests NEC: 4 (2%) n (%)
  TEAE: Migraine Headaches: 5 (2%) n (%)
  TEAE: Migraine NOS: 5 (2%) n (%)
  TEAE: Mineral and Electrolyte Analyses: 2 (<1%) n (%)
  TEAE: Monoarthritis: 1 (<1%) n (%)
  TEAE: Monocyte Count Decreased: 1 (<1%) n (%)
  TEAE: Monocyte Count Increased: 2 (<1%) n (%)
  TEAE: Mononeuropathies: 2 (<1%) n (%)
  TEAE: Movement Disorder NOS: 0 n (%)
  TEAE: Muscle Cramps: 8 (3%) n (%)
  TEAE: Muscle Infections and Inflammations: 0 n (%)
  TEAE: Muscle Pains: 2 (<1%) n (%)
  TEAE: Muscle Related Signs and Symptoms NEC: 9 (4%) n (%)
  TEAE: Muscle Spasms: 1 (<1%) n (%)
  TEAE: Muscle Strain: 5 (2%) n (%)
  TEAE: Muscle Tone Abnormalities: 1 (<1%) n (%)
  TEAE: Muscle, Tendon and Ligament Injuries: 6 (2%) n (%)
  TEAE: Musculoskeletal Chest Pain: 1 (<1%) n (%)
  TEAE: Musculoskeletal and Connective Tissue Disorders: 56 (22%) n (%)
  TEAE: Musculoskeletal and Connective Tissue Signs and Symptoms NEC: 19 (7%) n (%)
  TEAE: Musculoskeletal and Soft Tissue Imaging Procedures: 0 n (%)
  TEAE: Myalgia: 1 (<1%) n (%)
  TEAE: Myasthenia Gravis: 0 n (%)
  TEAE: Mycoplasma Infections: 1 (<1%) n (%)
  TEAE: Myeloradiculopathy: 0 n (%)
  TEAE: Myositis: 0 n (%)
  TEAE: Nail Fungal Infection NOS: 0 n (%)
  TEAE: Nail Infection NOS: 1 (<1%) n (%)
  TEAE: Nasopharyngitis: 18 (7%) n (%)
  TEAE: Nausea: 15 (6%) n (%)
  TEAE: Nausea and Vomiting Symptoms: 19 (7%) n (%)
  TEAE: Neck Pain: 1 (<1%) n (%)
  TEAE: Nervous System Disorders: 41 (16%) n (%)
  TEAE: Neurological Signs and Symptoms NEC: 4 (2%) n (%)
  TEAE: Neuromuscular Junction Dysfunction: 0 n (%)
  TEAE: Neutrophil Count Decreased: 3 (1%) n (%)
  TEAE: Night Cramps: 1 (<1%) n (%)
  TEAE: Nitrite Urine Present: 1 (<1%) n (%)
  TEAE: Non-Accidental Overdose: 1 (<1%) n (%)
  TEAE: Non-Site Specific Injuries NEC: 5 (2%) n (%)
  TEAE: Non-Site Specific Procedural Complications: 3 (1%) n (%)
  TEAE: Ophthalmic Function Diagnostic Procedures: 1 (<1%) n (%)
  TEAE: Oral Dryness and Saliva Altered: 1 (<1%) n (%)
  TEAE: Osteoarthritis Aggravated: 3 (1%) n (%)
  TEAE: Osteoarthropathies: 4 (2%) n (%)
  TEAE: Osteopenia: 0 n (%)
  TEAE: Osteoporosis NOS: 2 (<1%) n (%)
  TEAE: Otitis Media NOS: 0 n (%)
  TEAE: Overdoses: 1 (<1%) n (%)
  TEAE: Pain in Limb: 2 (<1%) n (%)
  TEAE: Paraesthesias and Dysaesthesias: 1 (<1%) n (%)
  TEAE: Parkinson's Disease NOS: 1 (<1%) n (%)
  TEAE: Parkinson's Disease and Parkinsonism: 1 (<1%) n (%)
  TEAE: Periorbital Haematoma: 1 (<1%) n (%)
  TEAE: Peripheral Swelling: 1 (<1%) n (%)
  TEAE: Pharyngitis Streptococcal: 4 (2%) n (%)
  TEAE: Physical Examination Procedures: 8 (3%) n (%)
  TEAE: Plantar Fasciitis: 2 (<1%) n (%)
  TEAE: Pneumonia Mycoplasmal: 1 (<1%) n (%)
  TEAE: Pneumonia NOS: 1 (<1%) n (%)
  TEAE: Popliteal Bursitis: 0 n (%)
  TEAE: Post Procedural Discomfort: 1 (<1%) n (%)
  TEAE: Post Procedural Pain: 2 (<1%) n (%)
  TEAE: Proctalgia: 0 n (%)
  TEAE: Protein Urine Present: 2 (<1%) n (%)
  TEAE: Pruritus Ani: 0 n (%)
  TEAE: Rectal Cramps: 1 (<1%) n (%)
  TEAE: Rectal Disorder NOS: 0 n (%)
  TEAE: Rectal Haemorrhage: 4 (2%) n (%)
  TEAE: Rectal Tenesmus: 0 n (%)
  TEAE: Red Blood Cell Analyses: 1 (<1%) n (%)
  TEAE: Red Blood Cells Urine: 0 n (%)
  TEAE: Renal Bruit: 0 n (%)
  TEAE: Renal Function Analyses: 1 (<1%) n (%)
  TEAE: Reproductive Organ and Breast Histopathology Procedures: 1 (<1%) n (%)
  TEAE: Respiratory Tract Infection NOS: 1 (<1%) n (%)
  TEAE: Rheumatoid Arthritis: 0 n (%)
  TEAE: Rheumatoid Arthritis Aggravated: 0 n (%)
  TEAE: Rheumatoid Arthropathies: 0 n (%)
  TEAE: Rhinoviral Infections: 18 (7%) n (%)
  TEAE: Rib Fracture: 1 (<1%) n (%)
  TEAE: Road Traffic Accident: 1 (<1%) n (%)
  TEAE: Rotator Cuff Syndrome: 0 n (%)
  TEAE: Seizures and Seizure Disorders NEC: 1 (<1%) n (%)
  TEAE: Sinus Headache: 3 (1%) n (%)
  TEAE: Sinusitis Acute NOS: 0 n (%)
  TEAE: Sinusitis NOS: 24 (9%) n (%)
  TEAE: Site Specific Injuries NEC: 6 (2%) n (%)
  TEAE: Skeletal and Cardiac Muscle Analyses: 19 (7%) n (%)
  TEAE: Skin Fungal Infection NOS: 1 (<1%) n (%)
  TEAE: Skin Infection NOS: 0 n (%)
  TEAE: Skin Structures and Soft Tissue Infections: 1 (<1%) n (%)
  TEAE: Sleep Apnoea Syndrome: 0 n (%)
  TEAE: Sleep Apnoeas: 0 n (%)
  TEAE: Soft Tissue Disorders NEC: 2 (<1%) n (%)
  TEAE: Somnolence: 1 (<1%) n (%)
  TEAE: Speech and Language Abnormalities: 0 n (%)
  TEAE: Spinal Cord and Nerve Root Disorders NEC: 0 n (%)
  TEAE: Spondylitic Myelopathy: 0 n (%)
  TEAE: Spondyloarthropathies: 1 (<1%) n (%)
  TEAE: Spondylosis: 1 (<1%) n (%)
  TEAE: Staphylococcal Infection NOS: 1 (<1%) n (%)
  TEAE: Staphylococcal Infections: 1 (<1%) n (%)
  TEAE: Status Epilepticus: 1 (<1%) n (%)
  TEAE: Stomach Discomfort: 0 n (%)
  TEAE: Streptococcal Infection NOS: 1 (<1%) n (%)
  TEAE: Streptococcal Infections: 5 (2%) n (%)
  TEAE: Stress Fracture: 1 (<1%) n (%)
  TEAE: Temporomandibular Joint Disorder NOS: 1 (<1%) n (%)
  TEAE: Tendon Disorders: 0 n (%)
  TEAE: Tendonitis: 0 n (%)
  TEAE: Tension Headaches: 1 (<1%) n (%)
  TEAE: Thoracic Cage Fractures and Dislocations: 1 (<1%) n (%)
  TEAE: Tinea Cruris: 0 n (%)
  TEAE: Tinea Infections: 1 (<1%) n (%)
  TEAE: Tinea Pedis: 1 (<1%) n (%)
  TEAE: Tissue Enzyme Analyses NEC: 2 (<1%) n (%)
  TEAE: Tongue Coated: 1 (<1%) n (%)
  TEAE: Tongue Signs and Symptoms: 1 (<1%) n (%)
  TEAE: Tooth Abscess: 6 (2%) n (%)
  TEAE: Tooth Disorder NOS: 1 (<1%) n (%)
  TEAE: Tooth Impacted: 1 (<1%) n (%)
  TEAE: Tooth Infection: 1 (<1%) n (%)
  TEAE: Toothache: 2 (<1%) n (%)
  TEAE: Total Number of Subjects with at Least One TEAE: 220 (86%) n (%)
  TEAE: Transient Global Amnesia: 1 (<1%) n (%)
  TEAE: Tremor: 1 (<1%) n (%)
  TEAE: Tremor (Excl Congenital): 1 (<1%) n (%)
  TEAE: Trigger Finger: 0 n (%)
  TEAE: Triglyceride Analyses: 6 (2%) n (%)
  TEAE: Umbilical Hernia NOS: 1 (<1%) n (%)
  TEAE: Umbilical Hernias: 1 (<1%) n (%)

Reference: patent publication US20070093520A1, “Method of treatment of diarrhea-predominant irritable bowel syndrome in a subject” (priority 2005, published 2007)
